Literature values in patent US11298325B2, “Pharmaceutical compositions of pimobendan” (Boehringer Ingelheim Vetmedica GmbH, priority 2013, dated 2022).

Experiments:
[1] = pH 5
[2] = low solubility and low permeability

COc1ccc(-c2nc3ccc(C4=NNC(=O)CC4C)cc3[nH]2)cc1 (centres unmarked) [pimobendan]
Solubility in water [1]: about 1 mg/liter | Class in the Biopharmaceutics Classification Systems [2]: Class IV
